Square brackets hold non-standard residues; d marks the D form. Peptide text beside a SMILES is read from it. * marks the point of attachment. PhAc = O=C(Cc1ccccc1)*
Assays:
BALB/c mice = assay: Adoptive transfer delayed type hypersensitivity in mice (oxazolone); assay type: in vivo, mouse; settings: for swelling at challenge site (in words): 6 mg/kg/day s.c. pump for 24 hours
Procedure: An adoptive transfer delayedtype hypersensitivity murine model has been developed using splenic T cells primed to oxazolone. This model is described in Elices et al., Clin. Exp. Rheum., 11(Suppl. 8):577-580 (1993), whose procedures were followed here.
Thus, BALB/c mice were shaved on the belly and painted (50 μl on the belly and 5 μl on each paw) with three percent oxazolone in acetone/olive oil (4:1) at days zero and 1. At day 5, the mice were sacrificed, their spleens removed, and splenic T cells were obtained via nylon wool columns.
Normal saline or saline containing 25×10^6 /animal of the oxazoloneimmune T cells were separately injected into naive mice. The mic were then challenged by painting 10 μl of 2 percent oxazolone onto one ear each. All procedures were carried out under sterile conditions and in endotoxingfree buffers.
Prior to challenge or saline injection, the mice were implanted with pumps that subcutaneously administered normal saline, normal saline containing the peptide N--phenylacetyl--Leu--Asp--Phe--D--Pro--NH2 or normal saline containing a peptide with a scrambled sequence continually at 6 mg/kg/day for a 24-hour time period. The swelling diameter at the site of challenge or saline injection was measured with a microcaliper 24 hours thereafter.
An expanded study was carried out as described above except that a scrambled peptide control was not used using further inhibitor peptides o Table 1 with larger groups of mice. Statistical analyses were carried out versus injection of vehicle alone. Those results are shown below in Table 2.

[1] = test system: New Zealand white rabbits; assay: Rabbit cardiac allograft model; assay type: in vivo; settings: for Expression on Coronary Arteries: ICAM-1 / Expression on Coronary Arteries: Macrophages / Expression on Coronary Arteries: T cells / Expression on Coronary Arteries: Total Fibronectin / Expression on Coronary Arteries: VCAM-1 / Vessel Intimal Thickening: Percent of Vessels / Vessel Intimal Thickening: Severity (Percent of Vessel area) / Expression on Coronary Arteries: MHC Class II: 1 mg/kg s.c., donor heart; for Expression on Coronary Arteries: MHC Class II: 7 to 8 days; as to Expression on Coronary Arteries: ICAM-1: key: -: negative; ±: minimal; +: little; ++: moderately abundant; +++: very abundant; as to Expression on Coronary Arteries: Macrophages: key: -: negative; ±: minimal; +: little; ++: moderately abundant; +++: very abundant; as to Expression on Coronary Arteries: T cells: key: -: negative; ±: minimal; +: little; ++: moderately abundant; +++: very abundant; as to Expression on Coronary Arteries: Total Fibronectin: key: -: negative; ±: minimal; +: little; ++: moderately abundant; +++: very abundant
From the text: New Zealand white female rabbits (Charles River Lab., Saint Laurent, Quebec), between 3.5 and 4 kg underwent heterotopic cardiac transplant following an experimental protocol previously described [Alonso et al., Am. J. Pathol., 87:415-442 (1977); Clausell et al., Circulation, 89:2768-2779 (1994)] and approved by the Animal Care Committee of The Hospital for Sick Children, Toronto. The animals were […] to favor an HLA-mismatch, the host rabbits were Pasteurella-free and the donors, outbred animals. Both host and donor rabbits were fed Purina 5321-0.5 percent cholesterol diet (Research Diets Inc., New Brunswick, N.J.), a strategy that has proven useful in accelerating the process of allograft arteriopathy [Alonso et al., Am. J. Pathol., 87:415-442 (1977)]. The diet was commenced four days prior to the transplant and continued in the recipient of the transplant until the completion of the experimental period.
The technique of heterotopic cardiac transplantation has been previously described [Clausell et al., Circulation, 89:2768-2779 (1994)]. Briefly, a vertical incision was performed in the anterior aspect of the neck of the recipient rabbit and the left common carotid artery and the ipsilateral external jugular vein were isolated. The cardiac allograft was placed in the neck by anastomosing the aorta end-to-side to the recipient's carotid artery and the pulmonary end-to-side to the recipient's external jugular vein, following a total period of ischemia for the donor hearts of approximately 30 minutes. Postoperative care was in compliance with the Principles of Laboratory Animal Care formulated by the Canadian National Society for Medical Research.
Beginning the day of the transplant, the animals were randomized and treated with either scrambled peptide (control group) at 1 mg/kg s.c. or the inhibitor peptide at 1 mg/kg s.c. The doses of the peptides were empirically extrapolated to the in vivo model based on preliminary in vitro studies, of Table 1. No other immunosuppression therapy was administered. The grafts were monitored daily by palpation and maintained for 7 to 8 days, a previously described endpoint that was associated with myocardial rejection (impaired cardiac contractility) and development of the allograft arteriopathy in this model [Clausell et al., Circulation, 89:2768-2779 (1994)]. A total of fourteen animals were studied in the control (n=7) and treated (n=7) groups.
The animals were sacrificed using a lethal dose of euthanol (480 mg i.v.) (MTC Pharmaceutical, Cambridge, ON), host and donor hearts were removed, and the coronary arteries were perfused with saline through the aorta, followed by light fixation by perfusion with 2 percent paraformaldehyde (Sigma, St, Louis, Mo.). […] Different sections of the hearts were either saved in 10 percent formalin (BDH Inc., Toronto, ON) for light microscopy studies or immediately frozen in O.T.C. Compound Tissue Tek (Miles Inc., Elkart, Ind.) for specific immunohistochemistry studies.
Three different paraffin-embedded tissue sections from host and donor hearts from both control and treated rabbits were stained by the Movat pentachrome method for light microscopy. Morphometric analysis was performed using a Zeiss microscope attached to a computer-generated video analysis system (Perceptics Inc., NuVision software), as described in Clausell et al., Circulation, 89:2768-2779 (1994). The number of vessels with intimal lesions were counted in all three heart sections from each animal studied and are expressed as a percentage of the total vessel number.
In the host hearts, 999 vessels in the control group and 1054 vessels in the treated group were analyzed. In the donor hearts, 827 vessels in the control group and 617 vessels in the treated group were analyzed. […]

SJL/J mice = assay: Experimental autoimmune encephalomyelitis in mice; assay type: in vivo; settings: 1 mg/mouse i.p. at days 8 and 9; versus scrambled control peptide
Procedure: EAE was induced in female SJL/J mice (8 to 14 weeks old) by immunization on day zero with 50 μg of a peptide corresponding to positions 139-151 of PLP emulsified in a 1:1 mixture of PBS and complete Freund's adjuvant (CFA). Each mouse was injected with 0.2 ml of the adjuvant emulsion subcutaneously (s.c.) at two sites in the hind flank. All mice received 10^7 killed Bordetella pertussis units in 100 μl were injected intravenously 24 to 72 hours later.
Mice were observed daily, beginning at day 8 for clinical signs of EAE, and disease was scored on a scale of 0-5 as: 0=no disease; 1=floppy tail; 2=moderate hind limb weakness; 3=paraparesis; 4=paraplegis with moderate forelimb weakness; 5=qualdriplegis or premoribund state.
The inhibitor peptide N--phenylacetyl--Leu--Asp--Phe--D--Pro--NH2 was administered intraperitoneally at 1 mg/mouse in 0.2 ml of incomplete Freund's adjuvant at days 8 and 9. A peptide having a scrambled sequence [N--phenylacetyl--Asp--Leu--Phe--D--Pro--NH2 ] was similarly administered to serve as a control.
Summed or averaged scores for clinical signs were plotted vs. time. The area under the resulting curves was calculated between day 8 and day 35 to calculate percentage inhibition of EAE by an inhibitor peptide. The percent inhibition was calculated as follows: [formula]

SMILES | swelling at challenge site (in words) (BALB/c mice) | Expression on Coronary Arteries: ICAM-1 [1] | Expression on Coronary Arteries: Macrophages [1] | Expression on Coronary Arteries: T cells [1] | Expression on Coronary Arteries: Total Fibronectin [1] | Expression on Coronary Arteries: VCAM-1 [1] | Vessel Intimal Thickening: Percent of Vessels [1] [%] | Vessel Intimal Thickening: Severity (Percent of Vessel area) [1] [%] | Expression on Coronary Arteries: MHC Class II [1] | Baseline (rabbit own host heart) of incidence [1] [%] | Baseline (rabbit own host heart) of severity [1] [%] | Percent Inhibition (BALB/c mice; expanded study, 6 mg/kg/day, versus vehicle) [%] | clinical signs of EAE (SJL/J mice)
CC(C)C[C@H](NC(=O)[C@H](CC(=O)O)NC(=O)Cc1ccccc1)C(=O)N[C@@H](Cc1ccccc1)C(=O)N1CCC[C@@H]1C(N)=O [X L D F p phenylacetyl amide scrambled, N--phenylacetyl--Asp--Leu--Phe--D--Pro--NH2, reference compound] (PhAc-DLF[dP]-NH2) | no reduction of inflammation | + | + | ++ | ++ | + | 88 | 36 | ++ | 1 | 12 | – | –
CC(C)C[C@H](NC(=O)Cc1ccccc1)C(=O)N[C@@H](CC(=O)O)C(=O)N[C@@H](Cc1ccccc1)C(=O)N1CCC[C@@H]1C(N)=O [X L D F p phenylacetyl amide, N--phenylacetyl--Leu--Asp--Phe--D--Pro--NH2] (PhAc-LDF[dP]-NH2) | reduced thi type of CS1/VLA-4-mediated immunoinflammation | ± | ± | ± | ± | ± | 35 | 16 | ± | 12 | 12 | 36 | marked improvement in clinical signs

— patent US6117840A, “CS-1 peptidomimetics, compositions and methods of using the same” (Cytel Corporation, priority 1997, dated 2000)
